Results taken from patent US20080280288A1, “Assay Method to Predict Sensitivity of Cancer Cell to Anticancer Drug” (priority 2004, published 2008).
“Also recorded” adds a separate entry of the source.

Tests used:
[1] = test system: PC-3 (prostate) human cancer cell line; test: PC-3 subcutaneous xenograft in nude mice, relative tumor volume ratio; assay type: in vivo; conditions: PC-3 s.c. in nude mice; intravenously 10 mg/kg/day for five days
Method: (§1) The 25 human cancer cells proliferated in culture flasks or in the subcutaneous tissues of the nude mice were subcutaneously implanted to the bodysides of nude mice, and the mice were classified into a group of 5 control mice and a group of 5 treated mice of the compound 2 so that the average tumor volume of each group was uniform at the time of a tumor volume of 100 mm^3 or larger. The mice of the treated group were intravenously infused at 10 mg/kg/day for five days, and the mice of the control group were not treated or infused with the vehicle. The tumor volume was measured from day 1, subsequently measured over time on Day 5, 8, 12, 15, and a relative tumor volume ratio (T/C %)was estimated.
(§2) The cancer cells proliferated in culture flasks or in the subcutaneous tissues of the nude mice were subcutaneously implanted to the bodysides of nude mice, and the mice were classified into a group of 5 control mice and a group of 5 treated mice of the compounds so that the average tumor volume of each group was uniform at the time of a tumor volume of 100 mm^3 or larger. The mice of the treated group were intravenously infused at 10 mg/kg/day for five days, and the mice of the control group were not treated or infused with the vehicle. The tumor volume was measured from Day 1, and subsequently measured over time on Day 5, 8, 12, 15, and the relative tumor volume ratio was estimated. However, the experiment was basically discontinued at Day 15 in evaluation of the compound 1. In Table 2, the T/C % of the compounds 1, 2, 4 and the compound 2 in Example 2 to each cancer cell are shown.

[2] = test system: NCI-H522 (SCLC) human cancer cell line; test: NCI-H522 subcutaneous xenograft in nude mice, relative tumor volume ratio; assay type: in vivo; conditions: NCI-H522 s.c. in nude mice; intravenously 10 mg/kg/day for five days
Method: as §1
(§3) The cancer cells proliferated in culture flasks or in the subcutaneous tissues of the nude mice were subcutaneously implanted to the bodysides of nude mice, and the mice were classified into a group of 5 control mice and a group of 5 treated mice of the compounds so that the average tumor volume of each group was uniform at the time of a tumor volume of 100 mm^3 or larger. The mice of the treated group were intravenously infused at 10 mg/kg/day for five days, and the mice of the control group were not treated or infused with the vehicle. The tumor volume was measured from Day 1, and subsequently measured over time on Day 5, 8, 12, 15, and the relative tumor volume ratio was estimated. […]

[3] = test system: HT-29 (colorectal) human cancer cell line; test: HT-29 subcutaneous xenograft in nude mice, relative tumor volume ratio; assay type: in vivo; conditions: HT-29 s.c. in nude mice; intravenously 10 mg/kg/day for five days
Method: as §1, §2

[4] = test system: KM12 (colorectal) human cancer cell line; test: KM12 subcutaneous xenograft in nude mice, relative tumor volume ratio; assay type: in vivo; conditions: KM12 s.c. in nude mice; intravenously 10 mg/kg/day for five days
Method: as §1

[5] = test system: NCI-H69 (SCLC) human cancer cell line; test: NCI-H69 subcutaneous xenograft in nude mice, relative tumor volume ratio; assay type: in vivo; conditions: NCI-H69 s.c. in nude mice; intravenously 10 mg/kg/day for five days
Method: as §1

[6] = test system: SK-OV-3 (ovarian) human cancer cell line; test: SK-OV-3 subcutaneous xenograft in nude mice, relative tumor volume ratio; assay type: in vivo; conditions: SK-OV-3 s.c. in nude mice; intravenously 10 mg/kg/day for five days
Method: as §1

[7] = test system: NCI-H596 (NSCLC) human cancer cell line; test: NCI-H596 subcutaneous xenograft in nude mice, relative tumor volume ratio; assay type: in vivo; conditions: NCI-H596 s.c. in nude mice; intravenously 10 mg/kg/day for five days
Method: as §1, §3

[8] = test system: DU145 (prostate) human cancer cell line; test: DU145 subcutaneous xenograft in nude mice, relative tumor volume ratio; assay type: in vivo; conditions: DU145 s.c. in nude mice; intravenously 10 mg/kg/day for five days
Method: as §1, §2

[9] = test system: NCI-H460 (NSCLC) human cancer cell line; test: NCI-H460 subcutaneous xenograft in nude mice, relative tumor volume ratio; assay type: in vivo; conditions: for Tumor volume ratio (T/C %): NCI-H460 s.c. in nude mice, intravenously 10 mg/kg/day for five days
Method: as §1, §2

[10] = test system: Lu99 (NSCLC) human cancer cell line; test: Lu99 subcutaneous xenograft in nude mice, relative tumor volume ratio; assay type: in vivo; conditions: Lu99 s.c. in nude mice; intravenously 10 mg/kg/day for five days
Method: as §1

[11] = test system: WiDr (colorectal) human cancer cell line; test: WiDr subcutaneous xenograft in nude mice, relative tumor volume ratio; assay type: in vivo; conditions: WiDr s.c. in nude mice; intravenously 10 mg/kg/day for five days
Method: as §1, §2

[12] = test system: SW620 (colorectal) human cancer cell line; test: SW620 subcutaneous xenograft in nude mice, relative tumor volume ratio; assay type: in vivo; conditions: SW620 s.c. in nude mice; intravenously 10 mg/kg/day for five days
Method: as §1, §3

[13] = test system: OVCAR3 (ovarian) human cancer cell line; test: OVCAR3 subcutaneous xenograft in nude mice, relative tumor volume ratio; assay type: in vivo; conditions: OVCAR3 s.c. in nude mice; intravenously 10 mg/kg/day for five days
Method: as §1, §3

[14] = test system: KPL-4 (breast) human cancer cell line; test: KPL-4 subcutaneous xenograft in nude mice, relative tumor volume ratio; assay type: in vivo; conditions: KPL-4 s.c. in nude mice; intravenously 10 mg/kg/day for five days
Method: as §1

[15] = test system: FaDu (head & neck) human cancer cell line; test: FaDu subcutaneous xenograft in nude mice, relative tumor volume ratio; assay type: in vivo; conditions: FaDu s.c. in nude mice; intravenously 10 mg/kg/day for five days
Method: as §1, §2

[16] = test system: MDA-MB468 (breast) human cancer cell line; test: MDA-MB468 subcutaneous xenograft in nude mice, relative tumor volume ratio; assay type: in vivo; conditions: MDA-MB468 s.c. in nude mice; intravenously 10 mg/kg/day for five days
Method: as §1

[17] = test system: LC-6-JCK (NSCLC) human cancer cell line; test: LC-6-JCK subcutaneous xenograft in nude mice, relative tumor volume ratio; assay type: in vivo; conditions: LC-6-JCK s.c. in nude mice; intravenously 10 mg/kg/day for five days
Method: as §1, §3

[18] = test system: NCI-H146 (SCLC) human cancer cell line; test: NCI-H146 subcutaneous xenograft in nude mice, relative tumor volume ratio; assay type: in vivo
Method: as §1

[19] = test system: DLD-1 (colorectal) human cancer cell line; test: DLD-1 subcutaneous xenograft in nude mice, relative tumor volume ratio; assay type: in vivo; conditions: DLD-1 s.c. in nude mice; intravenously 10 mg/kg/day for five days
Method: as §1, §3

[20] = test system: HBC4 (breast) human cancer cell line; test: HBC4 subcutaneous xenograft in nude mice, relative tumor volume ratio; assay type: in vivo; conditions: HBC4 s.c. in nude mice; intravenously 10 mg/kg/day for five days
Method: as §1

[21] = test system: BSY-1 (breast) human cancer cell line; test: BSY-1 subcutaneous xenograft in nude mice, relative tumor volume ratio; assay type: in vivo; conditions: for Tumor volume ratio (T/C %): BSY-1 s.c. in nude mice, intravenously 10 mg/kg/day for five days
Method: as §1, §2

[22] = test system: NCI-H510 (SCLC) human cancer cell line; test: NCI-H510 subcutaneous xenograft in nude mice, relative tumor volume ratio; assay type: in vivo; conditions: NCI-H510 s.c. in nude mice; intravenously 10 mg/kg/day for five days
Method: as §1

[23] = test system: Calu-1 (NSCLC) human cancer cell line; test: Calu-1 subcutaneous xenograft in nude mice, relative tumor volume ratio; assay type: in vivo; conditions: Calu-1 s.c. in nude mice; intravenously 10 mg/kg/day for five days
Method: as §1

[24] = test system: NCI-H526 (SCLC) human cancer cell line; test: NCI-H526 subcutaneous xenograft in nude mice, relative tumor volume ratio; assay type: in vivo
Method: as §1

[25] = test system: MDA-MB435 (breast) human cancer cell line; test: MDA-MB435 subcutaneous xenograft in nude mice, relative tumor volume ratio; assay type: in vivo; conditions: MDA-MB435 s.c. in nude mice; intravenously 10 mg/kg/day for five days
Method: as §1, §3

[26] = test system: human breast cancer cell line (BSY-1); conditions: reported in WO 02/060890, WO 03/099813, WO 04/011661; cited from earlier work
[27] = test system: human colon cancer cell line (WiDr); conditions: reported in WO 03/099813 and related filings; cited from earlier work

Row | SMILES | Tumor volume ratio (T/C %) [1] | Tumor volume ratio (T/C %) [2] | Tumor volume ratio (T/C %) [3] | Tumor volume ratio (T/C %) [7] | Tumor volume ratio (T/C %) [8] | Tumor volume ratio (T/C %) [9] | Tumor volume ratio (T/C %) [11] | Tumor volume ratio (T/C %) [12] | Tumor volume ratio (T/C %) [13] | Tumor volume ratio (T/C %) [15] | Tumor volume ratio (T/C %) [17] | Tumor volume ratio (T/C %) [19] | Tumor volume ratio (T/C %) [21] | Tumor volume ratio (T/C %) [25] | Antitumor activity to WiDr (in words) [27] | other results
1 | CCC(O)C(C)C1OC1CC(C)(O)/C=C/C=C(\C)C1OC(=O)CC(O)CCC(C)(O)C(OC(=O)N2CCN(C3CCCCCC3)CC2)/C=C/C1C (stereo not drawn) [Compound 2, (8E,12E,14E)-7-((4-cycloheptylpiperazin-1-yl)carbonyl)oxy-3,6,16,21-tetrahydroxy-6,10,12,16,20-pentamethyl-18,19-epoxytricosane-8,12,14-trien-11-olide] | 2% | 42% | 28% | 18% | 28% | 33% | 4% | 28% | 0% | 3% | 0% | 47% | 0% | 28% | – | Tumor volume ratio (T/C %) [4]: 34%; Tumor volume ratio (T/C %) [5]: 1%; Tumor volume ratio (T/C %) [6]: 27%; Sensitivity of the cancer cell line to the compound (in words) ([9]; H460 xenograft in nude mice): low sensitivity; Tumor volume ratio (T/C %) [10]: 8%; Tumor volume ratio (T/C %) [14]: 23%; Tumor volume ratio (T/C %) [16]: 0%; Tumor volume ratio (T/C %) ([18]; NCI-H146 s.c. in nude mice, intravenously 10 mg/kg/day for five days): 1%; Course of the tumor (in words) ([18]; NCI-H146 xenograft in nude mice, tumor not eliminated): consecutive reduction of the tumor for a long term; Tumor volume ratio (T/C %) [20]: 5%; Sensitivity of the cancer cell line to the compound (in words) ([21]; BSY-1 xenograft in nude mice): high sensitivity until remission; Tumor volume ratio (T/C %) [22]: 10%; Tumor volume ratio (T/C %) [23]: 55%; Sensitivity of the cancer cell line to the compound (in words) ([24]; H526 xenograft in nude mice): high sensitivity without remission; Tumor volume ratio (T/C %) ([24]; NCI-H526 s.c. in nude mice, intravenously 10 mg/kg/day for five days): 1%
2 | CCC(O)C(C)C1OC1CC(C)/C=C/C=C(\C)C1OC(=O)CC(O)CCC(C)(O)C(OC(C)=O)/C=C/C1C (stereo not drawn) [Compound 1, (8E,12E,14E)-7-acetoxy-3,6,21-trihydroxy-6,10,12,16,20-pentamethyl-18,19-epoxytricosane-8,12,14-trien-11-olide] | 20% | 64% | 58% | 76% | 26% | 53% | 29% | – | 23% | 33% | – | 59% | 0% | 50% | – | Antitumor activity to BSY-1 (in words) [26]: high sensitivity; also recorded: high antitumor activity
3 | CCC(O)C(C)C1OC1CC(C)(O)/C=C/C=C(\C)C1OC(=O)CC(O)CCC(C)(O)C(OC(=O)N2CCN(C(C)C)CC2)/C=C/C1C (stereo not drawn) [Compound 3, (8E,12E,14E)-3,6,16,21-tetrahydroxy-7-((4-isopropylpiperazin-1-yl)carbonyl)oxy-6,10,12,16,20-pentamethyl-18,19-epoxytricosane-8,12,14-trien-11-olide] | 4% | – | 26% | – | 34% | – | 4% | 19% | – | 1% | 0% | – | 2% | – | antitumor activity | –
4 | CCC(O)C(C)C1OC1CC(C)(O)/C=C/C=C(\C)C1OC(=O)CC(O)CCC(C)(O)C(OC(=O)N2CCN(C)CC2)/C=C/C1C (stereo not drawn) [Compound 4, (8E,12E,14E)-3,6,16,21-tetrahydroxy-6,10,12,16,20-pentamethyl-7-((4-methylpiperazin-1-yl)-carbonyl)oxy-18,19-epoxytricosane-8,12,14-trien-11-olide] | 3% | – | 46% | – | 26% | – | 7% | – | – | 5% | – | – | – | – | antitumor activity | –
